The values that follow come from patent US20240245709A1, “[…] USE IN TREATMENT OF E[…] EPILEPTICUS” (MARINUS PHARMACEUTICALS, INC., priority 2021, published 2024).

A short description of data set [1]: Solubility of ganaxolone in solvents. In kind it is physicochemical. The procedure: (§1) Ganaxolone is insoluble in water. […] 3.5 mg/mL, and 3.1 mg/mL, respectively. Ganaxolone has a relatively long half-life—approximately 20 hours in human plasma following oral administration (Nohria, V. and Giller, E., Neurotherapeutics, (2007) 4(1): 102-105). Furthermore, ganaxolone has a short Tmax, which means that therapeutic blood levels are reached quickly.
Ganaxolone formulations suitable for parenteral administration in the methods of the present invention may comprise physiologically acceptable sterile aqueous or non-aqueous solutions, dispersions, suspensions or emulsions, and sterile powders for reconstitution into sterile injectable solutions or dispersions. Examples of suitable aqueous and non-aqueous carriers, diluents, solvents, or vehicles including water, ethanol, polyols (propylene glycol, polyethylene-glycol, glycerol, cremophor and the like), suitable mixtures thereof, vegetable oils (such as olive oil) and injectable organic esters such as ethyl oleate. Additionally, ganaxolone can be dissolved at concentrations of >1 mg/ml using water soluble beta cyclodextrins (e.g. beta-sulfobutyl-cyclodextrin and 2-hydroxypropylbetacyclodextrin). A particularly suitable cyclodextrin is a substituted-β-cyclodextrin is Captisol®. […]

A short description of data set [2]: Human plasma pharmacokinetics following oral administration. In kind it is in vivo. The procedure:
as §1

Data set [3] in a line: Clinical safety in the ganaxolone development program (placebo-controlled Phase 1, 2 and 3 studies). The class given is in vivo, human. The text has this:
In the completed placebo-controlled Phase 1, 2, and 3 studies, 0.32% of subjects who received ganaxolone and 0.46% of subjects who received placebo developed elevated LFTs during the study (>3×ULN AST and/or ALT). A subject participating in the ganaxolone paediatric epilepsy study developed liver failure, which was not considered to be related to ganaxolone. The subject was diagnosed with short bowel syndrome, liver steatosis and IgG-cholangitis, which were considered to be the causal factors for the subject's liver failure. There have been no other cases of Hy's Law or liver failure in the ganaxolone development program. […] After cessation of the dosing, plasma ganaxolone levels are expected to drop rapidly, but it is possible that low sub-therapeutic levels persist for several days as ganaxolone is slowly released from tissues.
(§2) Ganaxolone has been administered to infants with severe forms of epilepsy as early as 4 months of age. In clinical trials involving administration of ganaxolone over several weeks, the study drug has been tapered off over a 1 to 2-week period.

The next data set addresses T1, progesterone receptor (Homo sapiens, UniProt P06401).
T1 sequence (P06401 1-933): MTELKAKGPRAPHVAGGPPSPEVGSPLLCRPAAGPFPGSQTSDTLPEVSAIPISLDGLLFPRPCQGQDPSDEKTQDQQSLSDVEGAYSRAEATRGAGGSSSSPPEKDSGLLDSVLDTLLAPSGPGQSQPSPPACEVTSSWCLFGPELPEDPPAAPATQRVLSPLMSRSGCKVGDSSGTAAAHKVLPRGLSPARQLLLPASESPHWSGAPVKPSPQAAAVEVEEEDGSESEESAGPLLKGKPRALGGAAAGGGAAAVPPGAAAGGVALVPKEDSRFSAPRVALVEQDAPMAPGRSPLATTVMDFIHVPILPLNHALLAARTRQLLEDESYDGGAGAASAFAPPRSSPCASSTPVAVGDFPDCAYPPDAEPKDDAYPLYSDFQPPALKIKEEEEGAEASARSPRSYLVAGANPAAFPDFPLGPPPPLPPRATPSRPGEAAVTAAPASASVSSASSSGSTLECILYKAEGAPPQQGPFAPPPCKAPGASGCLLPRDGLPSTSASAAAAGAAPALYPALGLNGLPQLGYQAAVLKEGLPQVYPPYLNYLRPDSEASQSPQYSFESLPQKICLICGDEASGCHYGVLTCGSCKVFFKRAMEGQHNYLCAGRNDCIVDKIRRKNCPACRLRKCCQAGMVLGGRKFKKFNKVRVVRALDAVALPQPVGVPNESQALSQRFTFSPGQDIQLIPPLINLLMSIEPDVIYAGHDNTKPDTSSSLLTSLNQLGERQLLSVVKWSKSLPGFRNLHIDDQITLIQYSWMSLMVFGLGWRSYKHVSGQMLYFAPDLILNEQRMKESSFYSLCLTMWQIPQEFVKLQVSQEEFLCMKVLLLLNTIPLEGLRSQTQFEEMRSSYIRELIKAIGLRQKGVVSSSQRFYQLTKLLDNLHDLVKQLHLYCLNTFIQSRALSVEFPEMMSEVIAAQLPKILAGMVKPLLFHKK
Briefly: Progesterone receptor activation. To be noted: directly or indirectly, via metabolic conversion. The text has this: Ganaxolone (3α-hydroxy-3β-methyl-5α-pregnan-20-one) is a 3β-methylated synthetic analogue of the endogenous neurosteroid allopregnanolone with similar biological activity (Carter et al., (1997), The Journal of Pharmacology and Experimental Therapeutics, 280:1284-1295), but it is designed to not activate nuclear (classical) progesterone receptors.

The nature of data set [4]: Toxicology studies in animals focusing on prenatal and neonatal development. In kind it is in vivo.
Source text: as §2

For data set [5] the following is noted: human plasma, oral administration; cited from earlier work.
The next data set has as its system CYP3A4/5. Briefly: Metabolism and effect of strong CYP inducers on ganaxolone clearance (in vitro data and human PK data).

As for `CC(=O)[C@H]1CC[C@H]2[C@@H]3CC[C@H]4C[C@](C)(O)CC[C@]4(C)[C@H]3CC[C@]12C` [ganaxolone, 3α-hydroxy-3β-methyl-5α-pregnan-20-one], the solubility in data set [1] (aqueous with cosolvent or surfactant or cyclodextrin, beta-sulfobutyl-cyclodextrin and 2-hydroxypropylbetacyclodextrin, read-out: concentration dissolved using water soluble beta cyclodextrins) is more than 1000 µg/mL. For the same molecule, the solubility in water result in data set [1] (water) is given as “insoluble”. In data set [2] (human, in vivo), the Tmax entry is listed as “short”. In addition, the oral bioavailability result in data set [2] (in contrast to allopregnanolone) is “orally bioavailable”. In addition, in data set [3] (clinical trials, several weeks of administration, tapered off over 1 to 2 weeks), the “withdrawal symptoms after cessation” value is on record as “no reports of withdrawal symptoms”. Also, the “subjects who developed elevated LFTs (>3×ULN AST and/or ALT)” value in data set [3] (completed placebo-controlled Phase 1, 2 and 3 studies) is listed as 0.32%. In addition, the “trends in ECG intervals, vital signs, physical or neurological examinations” value in data set [3] (development program overall) was “no clinically significant trends”. The “excretion to breast milk” value in data set [3] (ganaxolone and its metabolites) is reported as “excreted to breast milk”. Also, in data set [3] (subject, intravenous administration), the “plasma concentration that can induce anesthesia” value was “above 1000 ng/ml”. For the same molecule, on progesterone receptor, the “activation of the progesterone receptor” value was “does not activate”. Also, the “prenatal and neonatal developmental toxicity” value in data set [4] is given as “have not demonstrated toxicities”. Besides, in data set [5], the half-life entry is on record as “approximately 20 hours”. Moreover, in the data set with CYP3A4/5 (human, in vivo), the metabolizing enzyme result is “metabolized by CYP3A4/5”. For the same molecule, the “lowering in overall ganaxolone levels and exposure” value in the data set on CYP3A4/5 (subjects taking strong CYP inducers (carbamazepine and phenytoin)) is recorded as approximately 45%.
